The text below walks through data of patent US6783952B1, “Secreted soluble α2δ-2, α2δ-3 or α2δ-4 calcium channel subunit polypeptides and screening assays using same” (Warner-Lambert Company, priority 1999, dated 2004).

The target of the assay is [^3H]gabapentin site in porcine cortical membranes (Sus scrofa, UniProt O77773). As to the kind of experiment: [3H]gabapentin binding site competition in porcine cortical membranes. The conditions noted are these: read-out: IC50 arithmetic mean (N = 3) ± S.E.M., binding affinity for the [3H]gabapentin site, mean of n = 3 ± S.E.M.
[^3H]gabapentin site in porcine cortical membranes, sequence (O77773 25-1091): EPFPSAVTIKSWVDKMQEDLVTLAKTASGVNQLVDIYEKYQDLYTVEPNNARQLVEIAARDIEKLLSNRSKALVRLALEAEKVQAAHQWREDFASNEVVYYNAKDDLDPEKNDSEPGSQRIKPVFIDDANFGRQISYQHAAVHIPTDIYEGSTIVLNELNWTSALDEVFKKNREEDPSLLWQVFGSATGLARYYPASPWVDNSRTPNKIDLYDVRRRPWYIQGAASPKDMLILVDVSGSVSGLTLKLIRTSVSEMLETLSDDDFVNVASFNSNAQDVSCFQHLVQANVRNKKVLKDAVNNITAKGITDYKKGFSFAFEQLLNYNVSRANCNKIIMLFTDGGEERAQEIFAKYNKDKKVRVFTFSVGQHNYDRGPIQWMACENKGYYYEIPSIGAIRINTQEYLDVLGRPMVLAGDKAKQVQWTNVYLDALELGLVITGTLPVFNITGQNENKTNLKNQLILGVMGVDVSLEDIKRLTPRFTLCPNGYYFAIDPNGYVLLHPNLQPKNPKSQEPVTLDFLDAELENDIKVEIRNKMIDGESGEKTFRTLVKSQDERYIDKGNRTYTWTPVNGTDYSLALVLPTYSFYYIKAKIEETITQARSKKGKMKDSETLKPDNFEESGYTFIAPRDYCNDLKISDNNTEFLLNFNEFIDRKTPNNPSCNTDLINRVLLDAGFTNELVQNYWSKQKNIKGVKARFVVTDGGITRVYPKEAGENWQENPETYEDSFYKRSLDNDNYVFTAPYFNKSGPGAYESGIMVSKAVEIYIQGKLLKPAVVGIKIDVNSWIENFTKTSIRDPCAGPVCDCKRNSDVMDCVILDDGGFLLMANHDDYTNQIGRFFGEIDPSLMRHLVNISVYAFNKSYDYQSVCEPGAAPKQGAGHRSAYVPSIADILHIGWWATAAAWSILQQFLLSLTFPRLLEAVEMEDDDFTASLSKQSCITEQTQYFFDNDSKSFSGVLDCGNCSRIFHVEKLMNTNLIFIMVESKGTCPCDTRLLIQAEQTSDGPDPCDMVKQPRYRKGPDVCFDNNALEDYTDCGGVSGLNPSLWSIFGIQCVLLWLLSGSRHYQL

In the case of `CSCC[C@H](N)C(=O)O` [L-Methionine], the IC50 was 49.6 ± 10 nM.

As for `CC[C@@H](C)[C@H](N)C(=O)O` [L-Allo-Isoleucine], the IC50 is 32.8 ± 6 nM.

With `N[C@@H](Cc1ccccc1)C(=O)O` [L-Phenylalanine], the IC50 was 351 ± 89 nM.

As to `CC(C)C[C@H](N)C(=O)O` [L-Leucine], the IC50 is 61.3 ± 20.9 nM.

Turning to `CC(C)[C@H](N)C(=O)O` [L-Valine], the IC50 turned out to be 330 ± 18 nM.

As to `CC[C@H](C)[C@H](N)C(=O)O` [L-Isoleucine], the IC50 was found to be 68.8 ± 1.9 nM.

In the case of `CCCC[C@H](N)C(=O)O` [L-Norleucine], the IC50 came out at 23.6 ± 6.7 nM.
